Experimental data published in patent publication US20180135010A1, “ISOLATION AND LONG-TERM CULTURING OF ESTROGEN RECEPTOR-POSITIVE HUMAN BREAST EPITHELIAL CELLS” (University of Copenhagen, priority 2015, published 2018).

Columns and labels:
[1] = test system: hTERT/shp16 transduced ER^pos HBEC; test: qRT-PCR of ESR and PGR after 7 days exposure to inhibitors; format: cell-based, human; settings: RepSox alone versus combination with SB431542
Experimental: FIG. 12: PCR analysis of human estrogen receptor signaling. (a) Using a commercially available PCR array containing 84 genes involved in ER activation and its response, qRT-PCR was conducted with RNA samples of ER^pos HBEC with or without TGFβ[…]. Among them, 20 genes (some of which are labeled in the plot) were highly expressed in the presence of TGFβ[…]. […] The black line indicates no difference between samples, while the pink lines indicate a two-fold change in gene expression. Two biological replicates were run I qRT-PCT with duplicates of each. […] Bars indicate the fold difference of the relative gene expression and error bars represent SD of triplicates in qPCR.

[2] = test system: CD166^high-derived cells; test: Long-term growth / population doublings on passaging; format: cell-based, human; settings: in the absence of RepSox (SB431542 alone)
Description: For growth experiments cultures initially seeded at 6400 cells/cm^2 and grown for fifteen days in primary culture in TGFβR2i or with SB431542 alone. Next, the cultures were trypsinized and seeded at 4000 cells/cm^2 in triplicate cultures, and subsequently passaged at the same density before the cultures reached confluency. Parallel cultures were stained to assess Ks20.8, ER and PR expression status. The number of cells was quantified manually using a counting chamber. […] Population doublings were calculated as n=3.32(log UCY—log 1)+X, where n=population doubling, UCY=cell yield, 1=inoculum number, X=population doubling rate of inoculum. To determine whether continuous TGFβR2i culture was needed to sustain ER and K8 expression, cells in the sixth passage were switched to FAD2 and the number of ER^pos cells (n=3×100) was compared to parallel TGFβR2i cultures at day three and five.

[3] = test system: CD166^high cells; test: Induction of ER, K8 and luminal genes by TGF-β signaling inhibitors (qPCR, Western blotting, staining); format: cell-based, human
Experimental: To test the specificity of the effect of TGFβ[…], in some experiments SB431542 alone or the double concentration of SB431542 was used instead of TGFβ[…] or RepSox was replaced by another TGF-β type I receptor activin receptor-like kinase ALKS inhibitor, SD208 (1 μM, Tocris Bioscience). The vehicle, dimethyl sulfoxide (Sigma Aldrich), was included in all experiments added in appropriate concentrations for control cultures. Gentamycin (50 μg/ml, Biological Industries) was added to the cultures for one week after sorting, otherwise antibiotics were not included. […] In order to quantify cDNA concentration represented by cycle threshold (Ct) values, Cts were determined at the initial period of exponential amplification in triplicates and the different PCR runs were adjusted by inter-run calibrators (Bio-Rad CFX manager 3.0). Each gene expression level was to the mean of four reference gene expressions (GAPDH, HPRT1, TBP, and TFRC). The qRT-PCR data were then visualized as a heatmap using the statistical programi R or as a bar graph using the values calculated by the 2^-ΔΔCt method (Livak et al., 2001). […] Whole cell lysates were prepared for extraction by incubation in RIPA lysis buffer for 30 min at 4° C. with protease inhibitor cocktail (P8340, Sigma) and phosphatase inhibitor cocktail (Sigma, P5726). Protein were separated by a 4 12% Novex® Bis-Tris pre-cast polyacrylamide gradient gel (Life technologies) and transferred to a PVDF membrane using iBlot® dry blotting system (Life technologies). Molecular weight was indicated by using a pre-stained protein ladder (SM0671, Fermentas). […] Secondary antibodies conjugated with horseradish peroxidase (DAKO) were incubated for one hour at room temperature. Western blots were visualized using enhanced chemiluminescence solution ([…] 32106, Thermo Scientific) and a chemi-luminescence imager (Amersham Image 600, GE Healthcare life sciences).

[4] = test system: luminal cells; test: Screening assay for normal morphogenic behavior (co-culture on fibroblast feeder in BBMYAB); format: cell-based, human; settings: E2 10^−8 M
Description: Within two weeks luminal cells grow up from single cells to form polarized structures, either comprising luminal cells only or luminal cells surrounded by a layer of myoepithelial cells, reminiscent of their organization in vivo.

[5] = test system: ER^pos cells; test: qRT-PCR of PGR and GREB1 after estrogen; format: cell-based, human; settings: long-term exposure to estrogen
[6] = test system: ER^pos cells; test: Proliferative response to estrogen without EGF; format: cell-based, human; settings: early passage cultures, 10^−8 M β-estradiol versus vehicle, four days
Experimental: To test the proliferative response to estrogen, ER^pos cells in TGFβR2i culture were seeded in second passage with 4000 cells/cm^2 in TGFβR2i with 25 μM RepSox and without EGF, supplemented with estrogen (10^−8 M, β-estradiol, E2758, Sigma-Aldrich) and cultured for up to 13 days with medium change every other day. A primary culture from another biopsy (P959) was cultured 27 days in the presence of estrogen and without EGF before splitting. The cells were passaged at 4000 cells/cm^2 in triplicate cultures with estrogen or vehicle (96% ethanol). At day four the cultures were trypsinized and quantified using a counting chamber.

[7] = test system: ER^pos cells; test: Response to estrogen on confluent fibroblast feeders; format: cell-based, human; settings: on confluent fibroblast feeders in TGFβR2i, day eight
Experimental: To assess whether the response of ER^pos cells to estrogen was modulated by the presence of fibroblasts, second or third passage ER^pos cells, with or without omission of EGF in the previous passage, were plated at a density of 5600 cells/cm^2 on confluent fibroblast feeders in triplicate culture. The following day, the culture medium was switched to TGFβR2i with estrogen or vehicle. […] At day eight, the cultures were trypsinized and the total cell number was quantified. Whether a continuous lack of EGF influenced the response to estrogen was tested in a similar set-up, where EGF was omitted from the medium during the entire experimental period.

[8] = test system: ER^pos cells; test: PR protein staining after estrogen; format: cell-based, human; settings: 10^−8 M β-estradiol, absence of EGF
Experimental: Cryostat sections, smears of sorted cells and monolayer cultures were prepared and stained by immunoperoxidase or immunofluorescence as previously described (Petersen et al. 1988, Villadsen et al. 2007, Rønnov-Jessen et al. 1992). Cellular smears for ER staining were fixed in 10% formalin for 10 min, followed by 5 min in ice-cold methanol:acetone (1:1), and incubated over night with anti-ER (Sp1, 1:10) at 4° C., followed by incubation for 30 min with Alexa Fluor 568 goat-anti rabbit IgG (Invitrogen). […] Immunofluorescence and peroxidase stainings were evaluated, quantified and photographed using a laser-scanning microscope (LSM 510; Carl Zeiss Microlmaging, Inc.) and brightfield microscopes (Laborlux S or DM5500B, Leica), respectively. For quantification of ER, K8, K19 and p63, nuclei were counterstained with hematoxylin and counted in randomly selected fields using an ocular grid and given as the percentage of stained cells of a total of 1000 cells evaluated with a 25 times objective.
As an ultimate test for a physiologically relevant ER expression we decided to assess the effect of added cognate ligand, i. e. estrogen (β-estradiol). […] Early passage cultures were exposed to estrogen or vehicle, and after four days the cell number was quantified. […]

[9] = test system: ER and PR; test: Substitution of EGF with amphiregulin in the culture medium; format: cell-based; settings: EGF substituted with amphiregulin

With `Cc1cccc(-c2[nH]ncc2-c2ccc3ncccc3n2)n1` [RepSox] the “induction of ER or PR” value [1] was “not as effective in inducing ER or PR as in combination with SB431542” and the expansion on passaging [2] was “could not be expanded beyond fourth passage”.

With `NC(=O)c1ccc(-c2nc(-c3ccc4c(c3)OCO4)c(-c3ccccn3)[nH]2)cc1` [SB431542] the “ER expression at the mRNA level” value ([3]; SB431542 alone in FAD2) was “capable of inducing increased expression of ER at the mRNA level” and the “induction of K8 and ER” value ([3]; twice the concentration of SB431542 instead of TGFβR2i) was “insufficient to induce K8 and ER”.

In the case of `Fc1ccc(Cl)cc1-c1nc(Nc2ccncc2)c2nccnc2n1` [SD208], the “induction of K8 and ER” value ([3]; RepSox replaced by SD208) is reported as “insufficient to induce K8 and ER”.

With β-estradiol [estrogen] the epithelial colony size [4] was “larger epithelial colonied are formed”, the “estrogen receptor and progesterone receptor expression” value [4] was “down-regulation of its receptor and induction of the downstream progesterone receptor” and the “expression of PGR and GREB1” value [5] was “increased expression of PGR and GREB1”. For the same molecule, the cell number [6] was “significantly higher cell numbers”, the cell number [7] was “significant increase in cell number” and the PR protein expression [8] was “higher focal expression of PR protein”.

B1: amphiregulin: EGF-like compound substituted for EGF in the culture medium (protein, UniProt P15514 101-187, looked up)
Amphiregulin: SVRVEQVVKPPQNKTESENTSDKPKRKKKGGKNGKNRRNRKKKNPCNAEFQNFCIHGECKYIEHLEAVTCKCQQEYFGERCGEKSMK
modifications: Amphiregulin
notes: EGF-like compound substituted for EGF in the culture medium
B1 was tested, and the “level of ER and PR” value [9] was “a higher level of ER and PR is observed”.
